# Assay results taken from a melting point compilation (Tetko et al.; mined from patent text by program, amines drawn as free bases though some values may be those of a salt).
row,Compound,melting point [°C]
1,O=C(O)C(=O)c1ccc(OCCOc2cc3ccccc3cc2OCCOc2ccccc2)cc1,176 to 177
2,C=CCOC(=O)c1ccc(CC(=O)Nc2ccc3c(c2)C(C)(C)CCC3(C)C)cc1,49 to 50
3,C=CCc1c(F)ccc2c3c([nH]c12)C(CC)(CC(=O)O)OCC3 (stereo not given),123 to 125
4,OCC(Nc1ncnc2nc[nH]c12)c1ccccc1 (racemic),130 to 138
5,COC1CCC(C2=C(Cl)C(=O)c3ccccc3C2=O)CC1 (stereo not given),110 to 113
6,CC(=O)OCC(=O)C1(OC(=O)CC(C)C)CCC2C3CC(C)C4=CC(=O)C=CC4(C)C3C(O)CC21C (stereo not given),172
7,N#Cc1ccc(NC(=O)C(=O)N2CCC(Cc3ccccc3)CC2)cc1,109 to 112
8,Brc1ccc(-c2ccncc2)cc1,123 to 124
9,Cc1occ(S(=O)(=O)NC(C)(C)C)c1C,95 to 96
10,O=C1OC(CN2CCC(O)(c3ccc(Cl)cc3)CC2)CN1c1ccccc1 (stereo not given),139 to 140
11,"c1ccc2nc3c(nc2c1)OCC1CCCN31 (single isomer, unassigned; (+))",121 to 123
12,N#Cc1ccccc1C(F)(F)C(F)(F)c1ccc(F)cc1,90 to 93
13,Fc1ccccc1-c1ccc(Br)cc1F,45 to 46
14,CCCCCCCCCCCCCCCCC1=C(c2cn(C)c3ccccc23)C(=O)NC1=O,112 to 114
15,CCCCCCCc1ccc(-c2nc(-c3ccccc3Cl)nn2C)cc1,64 to 67
16,COc1ccc(COCc2nc(C(C)C)c(Sc3cc(Cl)cc(Cl)c3)n2C)cc1,79 to 80
17,O=[N+]([O-])c1cc2c(c([N+](=O)[O-])c1)CCCC2,93
18,CCCCCCCCCCCCCCCCCC(=O)NN(C(=O)CCCCCCCCCCCCCCCCC)C(=O)CCCCC(=O)NN,244
19,CCOC(=O)C1c2c([nH]c3ccccc23)C2=C(CCC2)C1C#N (stereo not given),192 to 195
20,CCCCc1nc(SC)c(C(=O)O)n1Cc1ccc(-c2ccccc2C(=O)O)cc1,220
21,CCOC(=O)C(C)(C)N1OCC(CSC)=C(c2ccccc2)C1=O,105 to 106
22,CC(C)(C)c1ccc(-c2ccc(C(CCC(=O)O)=NO)cc2)cc1,170 to 172

row,Compound,melting point [°C]
1,COCCOc1nc(N)nc(-c2ccccc2)c1-c1ccc(=O)n(C(C)C)n1,128 to 130
2,FC(F)(F)c1cc2[nH]c(N3CCN(c4ncccc4Cl)CC3)nc2cc1Cl,209 to 211
3,COc1ccc(C(OCC2OC(n3cnc4c(N)nc(F)nc43)CC2O)(c2ccccc2)c2ccc(OC)cc2)cc1 (stereo not given),239 to 243
4,COC(=O)CC1CC(c2ccc(Cl)nc2)=NO1 (stereo not given),94 to 96
5,N#Cc1cccc(C2SC[C@@H](C(=O)O)N2C(=O)CCCCCC(=O)N2C(c3cccc(C#N)c3)SC[C@H]2C(=O)O)c1 (stereo not given in full),105 to 112
6,O=C(CCCCCCCCC(=O)CC(=O)c1ccccc1)CC(=O)c1ccccc1,108 to 111
7,Cc1ccc(COc2ccc(C(=O)NC[C@@H](C(=O)NO)N3CCN(S(C)(=O)=O)CC3)cc2)cc1,180
8,O=C(CCl)Nc1ccc2c(c1NC(=O)c1ccc(Cl)cc1)C(=O)c1ccccc1C2=O,224 to 225
9,Cc1c(C(=O)c2ccc(Br)c3ccccc23)c2cccc(C(F)(F)F)c2n1CCN1CCOCC1,160
10,CN1C(C)(C)CC(OC(=O)CCc2cc(-n3nc4ccc(Cl)cc4n3)c(O)c(C(C)(C)C)c2)CC1(C)C,150 to 158
11,CCCCCS(=O)(=O)NC(=O)CCc1ccc(OCCOC)cc1Oc1ccccc1,70.4 to 70.5
12,COc1ccc2c(C#N)c(-c3ncc(S(=O)(=O)NC(CF)CF)cn3)n(C3CCC3)c2n1,229 to 230
13,O=c1[nH]c2ncc(-c3cn[nH]c3)nc2n1CC1CCCCC1,246 to 248
14,CCOC(=O)c1cn2c(nc1=O)CCCCC2,156 to 157
15,Nc1cc(-n2cc(C(=O)O)c(=O)c3cc(F)c(NC4COC4)c(Cl)c32)c(F)cc1F,240 to 244
16,CCCCCCCCCCCCCCCCC[C@@H](C[C@@H]1OC(=O)[C@H]1CC)OC(=O)[C@H](CC(C)C)NC(=O)OCc1ccccc1,44 to 47
17,CC(C)N(C(C)C)P(N)(N)=S,93 to 98
18,COC(=O)C[C@@H](CC(=O)C=Cc1c(-c2ccc(F)cc2)c(-c2ccccc2)c(C(=O)NCc2ccc(F)cc2)n1C(C)C)O[Si](C)(C)C(C)(C)C,62 to 63
19,CS(=O)(=O)c1ccc2c(c1)C=C(C(=O)O)C(C(F)(F)F)O2 (stereo not given),208 to 212
20,O=[N+]([O-])c1cc(Oc2ccc(Oc3cc([N+](=O)[O-])cc(C(F)(F)F)c3)cc2)cc(C(F)(F)F)c1,163
21,c1ccc(Cn2c(N3CCCCC3)nc3ccccc32)cc1,84 to 87
22,NNN=CN(N)CC(=O)O,148 to 149

row,Compound,melting point [°C]
1,Cc1ccc2c(c1)C(c1cn(C)c(=O)[nH]c1=S)c1nc(C)oc1C=C2 (stereo not given),238 to 240
2,O[C@H](CCc1cccnc1)COc1ccc(Br)cc1,65 to 66
3,COc1ccc(NN=C(Sc2ccc(C(C)(C)C)cc2)C(C)=O)cc1,111 to 113
4,COC(=O)C1=C(C)NC(C)=C(C(=O)OCC2COC3(CCCC3)O2)C1c1cccc([N+](=O)[O-])c1 (stereo not given),58 to 67
5,C#CCCn1ncc2c(N)c(C(=O)OCC=C)c(C)nc21,115 to 116
6,c1ccc(OCCSCc2nnc(-c3ccc(OCCCCN4CCSCC4)cc3)o2)cc1,58
7,COc1ccc(O)c2c1SC1CC3C(NC(=S)c4ccccc4)C(O)=C(C(N)=O)C(=O)C3(O)C(O)=C1C2=O (stereo not given),223
8,Clc1ccc(-c2ccco2)nn1,103 to 104
9,CCCCCCCc1ccc(NC(=O)Nc2ccccc2C(=O)NC2CCN(C(c3ccccc3)c3ccccc3)CC2)cc1,173 to 175
10,CCc1n[nH]c(=O)n1CCOc1ccccc1,136 to 139
11,Cc1ccc(CNC(=O)c2ccc(F)cc2OCC(=O)O)cc1[N+](=O)[O-],159 to 160
12,CCCCNC(=O)Nc1cc(Cl)ccc1C(=O)NCC1CCN(C(c2ccccc2)c2ccccc2)CC1,195 to 197
13,Cc1cc(F)ccc1C(=C(C=CC=O)c1nnnn1C)c1ccc(F)cc1C,75 to 95
14,O=[N+]([O-])c1ccc2c(c1)CCN(C[C@H](O)C(F)(F)F)CC2,82 to 85
15,COc1ccc(C(CN(C)C)C2CCCCC2O)cc1 (stereo not given),77 to 79
16,COc1ccc([C@]2(O)OCC(C)(C)N[C@H]2C)cc1,170 to 172
17,CC(C)(c1ccc(C(C)(C)c2ccc3ccccc3c2O)cc1)c1ccc2ccccc2c1O,245 to 255
18,O=P(O)(O)CNCCc1ccccc1,148 to 150
19,O=C1CCC(c2ccc(Cl)cc2)N1c1ccccc1 (stereo not given),82.5 to 83.5
20,CCOC(CBr)(OCC)C(=O)CBr,40 to 41.5
21,c1ccc(COc2ccc(CN(c3ccccc3)c3ccccc3)cc2)cc1,104 to 109

# Continued, values first:
row,melting point [°C],Compound
1,128,COc1ccc2ccc(N3C(=O)c4ccccc4C3NCCCN(C)C)nc2n1 (stereo not given)
2,252 to 255,CC(c1oc2ccc(F)cc2c(=O)c1-c1cccc(F)c1)n1cnc2c(N)ncnc21 (stereo not given)
3,234 to 236,Cc1nc(N2CCN(c3ccccc3)C2=O)sc1C(=O)NCc1ccccc1
4,96 to 97,CC(=O)N[C@@H](Cc1ccc2ccccc2c1)C(=O)OCc1cc(C)cc(C)c1
5,122 to 125,Cc1ccc(NC(=O)N2CCN(CCc3ccc(-c4cccc(N)n4)cc3)CC2)cc1C
6,242 to 245,COc1cc2ncc(C#N)c(Nc3cccc(C(=O)O)c3C)c2cc1OC
7,318 to 319,COc1ccc2c(=O)c3[nH]cc(C(=O)O)c(=O)c3oc2c1
8,74 to 77,COC(=O)COc1cccc(NC(=O)NCC(=O)N(CC(=O)OC(C)(C)C)c2ccccc2C(=O)c2ccccc2)c1
9,166 to 169,CCOC(=O)c1ccc(NC(=O)C=C(c2ccccc2)c2ccccc2)cc1
10,147 to 148,CCc1cc(OCc2ccc(-c3ccccc3C#N)cc2)c2c(n1)CCCC2
11,219,COc1ccccc1NC(=O)Nc1ncnc(Nc2ccccc2-c2ccccc2)n1
12,128 to 130,Cc1cccc(C(=O)NCN2CCN(c3ncccc3C#N)CC2)c1
13,157 to 160,CC(C)(C)OC(=O)N1CCC(c2nc(-c3ccncc3)c(-c3ccc(F)cc3)[nH]2)CC1
14,215 to 220,Cc1cccc(NC(=O)c2cc(C(F)(F)F)nn2-c2ccccc2Cl)c1NC(=O)C(C)C
15,185 to 187,CCCCc1ncc(/C=C(\Cc2cccs2)C(N)=O)n1Cc1cccc(Cl)c1Cl
16,178,Cc1noc(-c2c3cccc(-c4ccc(Cl)cc4Cl)c3nn2C)n1
17,178 to 180,Cc1cccc(-c2nc3cccnn3c2-c2ccnc(NC(=O)c3ccccc3)c2)c1
18,164 to 166,COc1cc(-c2cc(C(F)(F)F)nn2-c2ccc(S(C)(=O)=O)cc2)ccc1-c1cscn1
19,158 to 160,CCOC(=O)C1(Cc2ccccc2)CC(=O)N(c2ccnc(NC(=O)NCc3ccccn3)c2)C1 (stereo not given)
20,266,CN(C(=O)Nc1ccsc1)c1cccc2cc(-c3nccs3)[nH]c12
21,156 to 157,COc1cc(OCCCN(C)Cc2ccc(OC)c(OC)c2)ccc1NC(=O)c1cccc2c(=O)c3cccc(C)c3[nH]c12
22,> 270,Cc1nc(=O)[nH]c2ccc(Cl)cc12
23,155,CN(C)[C@H]1CC[C@H](Nc2ncc3ncnc(Nc4ccc(OCc5ccccc5)cc4)c3n2)CC1
24,156 to 160,CC1=C(CC(=O)N(C)O)c2cc(F)ccc2/C1=C\c1ccc(S(C)=O)cc1 (stereo not given)
25,118 to 120,CC(=O)N(C)c1cccc(-c2ccc(Cl)nn2)c1
26,244 to 246,Oc1nc(-c2ncccn2)nc(O)c1-c1cccs1
27,194 to 196,O=c1ccn(CCO)c(C(O)c2cccs2)c1OCc1ccccc1 (stereo not given)
28,166 to 167,O=C(O)c1ccccc1NC(=S)Cc1ccccc1
29,> 300,Cn1c(=O)c2nc(-c3ccc(/C=C/C(=O)O)cc3)[nH]c2n(Cc2ccccc2)c1=O
30,154 to 156,O=C(c1ccc(Cl)cc1)c1cccnc1N1CCCCC1=O
